Experimental data: patent US10960087B2, “Compositions and methods for treatment of diabetic retinopathy” (NOVARTIS AG, priority 2007, dated 2021)

Tests used:
[1] = test system: HuT 78 cell adhesion to 5dICAM-Ig; assay: Human T-cell adhesion assay (HuT 78); assay type: cell-based; settings: HuT78, HuT 78 adhesion to 5dICAM-Ig
Method: The T-cell adhesion assay was performed using the human T-lymphoid cell line HuT 78 (ATCC TIB-161). Goat anti-HuIgG(Fc) was diluted to 2 μg/ml in PBS and 96-well plates were coated with 50 μl/well at 37° C. for 1 h. Plates were washed with PBS and blocked for 1 h at room temperature with 1% BSA in PBS. 5 domain ICAM-Ig was diluted to 100 ng/ml in PBS and 50 μl/well was added to the plates 0/N at 4° C. HuT 78 cells were centrifuged at 100 g and the cell pellet was treated with 5 mM EDTA for ˜5′ at 37° C. in a 5% CO2 incubator. Cells were washed in 0.14 M NaCl, 0.02 M Hepes, 0.2% glucose and 0.1 mM MnCl2 (assay buffer) and centrifuged. The cells were resuspended in assay buffer to 3.0×10^6 c/ml. Inhibitors were diluted in assay buffer to a 2× final concentration and pre-incubated with HuT78 cells for 30′ at room temperature. 100 μl/well of cells and inhibitors were added to the plates and incubated at room temperature for 1 h. 100 μl/well PBS was added and the plates were sealed and centrifuged inverted at 100 g for 5′. Unattached cells were flicked out of the plate and excess PBS was blotted on a paper towel. 60 μl/well p-nitrophenyl n-acetyl-β-D-glucosaminide (0.257 g to 100 ml citrate buffer) was added to the plate and incubated for 1.5 h at 37° C. The enzyme reaction was stopped with 90 μI/well 50 mM glycine/5 mM EDTA and read on a platereader at […]. HUT 78 cell adhesion to 5dICAM-Ig was measured using the p-nitrophenyl n-acetyl-.β-D-glucosaminide method of Landegren, U. (1984). J. Immunol. Methods 57, 379-388.

Solubility = assay type: physicochemical

Row | EC50 [1] | solubility (Solubility) | Structure (SMILES)
1 | ≤ 300 nM | – | O=C(N[C@@H](Cc1c[nH]cn1)C(=O)O)c1c(Cl)cc2c(c1Cl)CCN(C(=O)c1ccc(Cl)cc1)C2 [Compound 1]
2 | ≤ 50 nM | > 100 mg/mL | O=C(NC[C@H](NC(=O)c1c(Cl)cc2c(c1Cl)CCN(C(=O)c1cccc(Cl)c1)C2)C(=O)O)c1cccs1 [Compound 2]
3 | ≤ 50 nM | – | O=C(N[C@@H](CNc1ncnc2ccccc12)C(=O)O)c1c(Cl)cc2c(c1Cl)CCN(C(=O)c1ccc(Cl)cc1)C2 [Compound 3]
4 | ≤ 100 nM | – | C=C(C)c1cn(C[C@H](NC(=O)c2c(Cl)cc3c(c2Cl)CCN(C(=O)c2ccc(Cl)cc2)C3)C(=O)O)nn1 [Compound 4]
5 | ≤ 50 nM | – | O=C(NC[C@H](NC(=O)c1c(Cl)cc2c(c1Cl)CCN(C(=O)c1ccc(Cl)cc1)C2)C(=O)O)c1ccccc1 [Compound 5]
6 | ≤ 50 nM | > 100 mg/mL | CCc1c(C(=O)N[C@@H](CNC(=O)c2cccs2)C(=O)O)c2ccccc2n(CCCc2ccccc2)c1=O [Compound 6]
7 | ≤ 50 nM | – | CS(=O)(=O)c1nc(C[C@H](NC(=O)c2c(Cl)cc3c(c2Cl)CCN(C(=O)c2ccc(Cl)cc2)C3)C(=O)O)c[nH]1 [Compound 7]
8 | ≤ 100 nM | – | O=C(N[C@@H](Cn1cc(CO)nn1)C(=O)O)c1c(Cl)cc2c(c1Cl)CCN(C(=O)c1ccc(Cl)cc1)C2 [Compound 8]
9 | ≤ 50 nM | > 50 mg/mL | C[S+]([O-])c1cc(F)cc(C[C@H](NC(=O)c2c(Cl)cc3c(c2Cl)CCN(C(=O)c2ccc(Cl)cc2)C3)C(=O)O)c1 (stereo partly shown) [Compound 9]
10 | – | > 100 mg/mL | CN1CCN(C(=O)[C@H](CNC(=O)c2cccs2)NC(=O)c2c(Cl)cc3c(c2Cl)CCN(C(=O)c2ccc(Cl)cc2)C3)CC1 [Compound 10]
11 | ≤ 3000 nM | – | O=C(NC[C@H](NC(=O)c1cc2c(cc1Cl)C(=O)N(Cc1ccccc1)CC2)C(=O)O)c1cccs1 [Compound 11]
12 | ≤ 50 nM | > 100 mg/mL | CS(=O)(=O)c1cccc(C[C@H](NC(=O)c2c(Cl)cc3c(c2Cl)CCN(C(=O)c2ccc4ccoc4c2)C3)C(=O)O)c1 [Compound 12]
13 | ≤ 50 nM | – | O=C(NC[C@H](NC(=O)c1c(Cl)cc2c(c1Cl)CCN(C(=O)c1ccc3cc[nH]c3c1)C2)C(=O)O)c1cccs1 [Compound 13]
14 | ≤ 50 nM | – | C[S+]([O-])c1cncc(C[C@H](NC(=O)c2c(Cl)cc3c(c2Cl)CCN(C(=O)c2ccc4ccoc4c2)C3)C(=O)O)c1 (stereo partly shown) [Compound 14]
15 | ≤ 50 nM | > 100 mg/mL | CS(=O)(=O)c1cccc(C[C@H](NC(=O)c2c(Cl)cc3c(c2Cl)CCN(C(=O)c2ccc4cn[nH]c4c2)C3)C(=O)O)c1 [Compound 15]
16 | ≤ 50 nM | > 100 mg/mL | CS(=O)(=O)c1cccc(C[C@H](NC(=O)c2c(Cl)cc3c(c2Cl)CCN(C(=O)c2cc4ccccc4cn2)C3)C(=O)O)c1 [Compound 16]
17 | ≤ 50 nM | – | O=C(NC[C@H](NC(=O)c1c(Cl)cc2c(c1Cl)CCN(C(=O)c1ccc(Cl)cc1)C2CO)C(=O)O)c1cccs1 (stereo partly shown) [Compound 17]
18 | ≤ 50 nM | – | O=C(NC[C@H](NC(=O)c1c(Cl)cc2c(c1Cl)CCN(C(=O)c1ccc(Cl)c(Cl)c1)C2)C(=O)O)c1cccs1 [Compound 18]
19 | ≤ 50 nM | > 50 mg/mL | CS(=O)(=O)c1cccc(C[C@H](NC(=O)c2c(Cl)cc3c(c2Cl)CCN(C(=O)c2cc4cccnc4[nH]2)C3)C(=O)O)c1 [Compound 19]
20 | ≤ 50 nM | > 100 mg/mL | CS(=O)(=O)c1ccc(C[C@H](NC(=O)c2c(Cl)cc3c(c2Cl)CCN(C(=O)c2cc4cccnc4[nH]2)C3)C(=O)O)o1 [Compound 20]
21 | ≤ 50 nM | > 100 mg/mL | O=C(NC[C@H](NC(=O)c1c(Cl)cc2c(c1Cl)CCN(C(=O)Nc1cccc(Cl)c1)C2)C(=O)O)c1cccs1 [Compound 21]
22 | ≤ 50 nM | – | CS(=O)(=O)c1ccn(C[C@H](NC(=O)c2c(Cl)cc3c(c2Cl)CCN(C(=O)c2ccc4ccoc4c2)C3)C(=O)O)c1 [Compound 22]
23 | ≤ 50 nM | – | CS(=O)(=O)N1CCC=C(C[C@H](NC(=O)c2c(Cl)cc3c(c2Cl)CCN(C(=O)c2ccc4ccoc4c2)C3)C(=O)O)C1 [Compound 23]
24 | ≤ 100 nM | – | CC(C)n1cc(C[C@H](NC(=O)c2c(Cl)cc3c(c2Cl)CCN(C(=O)c2ccc(Cl)cc2)C3)C(=O)O)nn1 [Compound 24]
25 | ≤ 50 nM | > 100 mg/mL | CS(=O)(=O)c1cc(F)cc(C[C@H](NC(=O)c2c(Cl)cc3c(c2Cl)CCN(C(=O)c2ccc4ccoc4c2)C3)C(=O)O)c1 [Compound 25]

Row | EC50 [1] | solubility (Solubility) | Structure (SMILES)
26 | ≤ 50 nM | – | N#CN=C(NC[C@H](NC(=O)c1c(Cl)cc2c(c1Cl)CCN(C(=O)/C=C/c1ccccc1O)C2)C(=O)O)N1CC[C@H](O)C1 [Compound 26]
27 | ≤ 50 nM | > 100 mg/mL | CS(=O)(=O)c1cccc(C[C@H](NC(=O)c2c(Cl)cc3c(c2Cl)CCN(C(=O)/C=C/c2ccccc2F)C3)C(=O)O)c1 [Compound 27]
28 | ≤ 50 nM | – | CS(=O)(=O)c1cccc(C[C@H](NC(=O)c2c(Cl)cc3c(c2Cl)CCN(C(=O)c2ccc(Cl)cc2)C3)C(=O)O)c1 [Compound 28]
29 | ≤ 3000 nM | > 50 mg/mL | Cc1cc2c(=O)n(Cc3ccccc3)ncc2cc1C(=O)N[C@@H](CNC(=O)c1cccs1)C(=O)O [Compound 29]
30 | ≤ 50 nM | – | Cc1oc(C[C@H](NC(=O)c2c(Cl)cc3c(c2Cl)CCN(C(=O)c2ccc4ccoc4c2)C3)C(=O)O)cc1S(C)(=O)=O [Compound 30]
31 | ≤ 50 nM | > 50 mg/mL | O=C(NC[C@H](NC(=O)c1c(Cl)cc2c(c1Cl)CCN(C(=O)c1ccc3ccoc3c1)C2)C(=O)O)c1cccc(F)c1 [Compound 31]
32 | ≤ 50 nM | > 50 mg/mL | O=C(NC[C@H](NC(=O)c1c(Cl)cc(CCC(O)c2cccc(O)c2)cc1Cl)C(=O)O)c1cccs1 (stereo partly shown) [Compound 32]
33 | ≤ 50 nM | – | CS(=O)(=O)c1cncc(C[C@H](NC(=O)c2c(Cl)cc3c(c2Cl)CCN(C(=O)c2ccc4ccoc4c2)C3)C(=O)O)c1 [Compound 33]
34 | ≤ 50 nM | – | O=C(NC[C@H](NC(=O)c1c(Cl)cc2c(c1Cl)CCN(C(=O)c1ccc3cn[nH]c3c1)C2)C(=O)O)c1cccs1 [Compound 34]
35 | ≤ 50 nM | > 100 mg/mL | O=C(NC[C@H](NC(=O)c1c(Cl)cc2c(c1Cl)CCN(C(=O)c1cc(O)nc3ccccc13)C2)C(=O)O)c1cccs1 [Compound 35]
36 | ≤ 50 nM | > 50 mg/mL | CS(=O)(=O)c1cccc(C[C@H](NC(=O)c2c(Cl)cc3c(c2Cl)CCN(C(=O)c2cc4ccccc4[nH]2)C3)C(=O)O)c1 [Compound 36]
37 | ≤ 100 nM | – | CS(=O)(=O)c1cccc(C[C@H](NC(=O)c2c(Cl)cc(CCC(O)c3ccc(Cl)cc3)cc2Cl)C(=O)O)c1 (stereo partly shown) [Compound 37]
38 | ≤ 50 nM | – | O=C(NC[C@H](NC(=O)c1c(Cl)cc2c(c1Cl)CCN(C(=O)c1cc3ccccc3o1)C2)C(=O)O)c1cccs1 [Compound 38]
39 | ≤ 50 nM | – | CS(=O)(=O)Nc1ccccc1NC[C@H](NC(=O)c1c(Cl)cc2c(c1Cl)CCN(C(=O)c1ccc(Cl)cc1)C2)C(=O)O [Compound 39]
40 | ≤ 300 nM | – | CS(=O)(=O)n1cc(C[C@H](NC(=O)c2c(Cl)cc3c(c2Cl)CCN(C(=O)/C=C/c2ccco2)C3)C(=O)O)c2ccccc21 [Compound 40]
41 | ≤ 50 nM | > 100 mg/mL | CS(=O)(=O)c1ccc(C[C@H](NC(=O)c2c(Cl)cc3c(c2Cl)CCN(C(=O)c2ccc4ccoc4c2)C3)C(=O)O)o1 [Compound 41]
42 | ≤ 3000 nM | > 100 mg/mL | CS(=O)(=O)CCNC[C@H](NC(=O)c1c(Cl)cc2c(c1Cl)CCN(C(=O)c1ccc(Cl)cc1)C2)C(=O)O [Compound 42]
43 | ≤ 50 nM | – | CS(=O)(=O)c1cccc(C[C@H](NC(=O)c2c(Cl)cc(CNC(=O)/C=C/c3ccccc3O)cc2Cl)C(=O)O)c1 [Compound 43]
44 | ≤ 50 nM | > 100 mg/mL | CS(=O)(=O)NCCC[C@H](NC(=O)c1c(Cl)cc2c(c1Cl)CCN(C(=O)c1ccc3ccoc3c1)C2)C(=O)O [Compound 44]
45 | ≤ 50 nM | > 100 mg/mL | O=C(NC[C@H](NC(=O)c1c(Cl)cc2c(c1Cl)CCN(C(=O)/C=C/c1ccco1)C2)C(=O)O)c1cccs1 [Compound 45]
46 | ≤ 100 nM | > 100 mg/mL | CS(=O)(=O)c1cccc(C[C@H](NC(=O)c2c(Cl)cccc2Cl)C(=O)O)c1 [Compound 46]
47 | ≤ 50 nM | – | O=C(CCc1cc(Cl)c(C(=O)N[C@@H](CNC(=O)c2cccs2)C(=O)O)c(Cl)c1)c1cccc(O)c1 [Compound 47]
48 | ≤ 50 nM | – | C[C@H](O)c1cccc(C[C@H](NC(=O)c2c(Cl)cc3c(c2Cl)CCN(C(=O)c2ccc4cn[nH]c4c2)C3)C(=O)O)c1 [Compound 48]
49 | ≤ 100 nM | – | CP(C)(=O)c1cccc(C[C@H](NC(=O)c2c(Cl)cc3c(c2Cl)CCN(C(=O)c2ccc4ccoc4c2)C3)C(=O)O)c1 [Compound 49]
